From patent US9779901B2, “High temperature material compositions for high temperature thermal cutoff devices” (Therm-O-Disc, Incorporated, priority 2008, dated 2017)
Where two headings read alike, the source gives them in different places.

Experiments:
[1] = estimated melting point temperature ranges of candidate organic compounds (Table 2); some compounds have several values, partly in parentheses, because analytic techniques differ; cited from earlier work

| Structure (SMILES) | Melting Point [1] | Melting Point [°C] |
| --- | --- | --- |
| C1=CCC2=C(C1)CC1=C(C2)CC2=C(CC=CC2)C1 [Example 4] | 241-242° ° C. | 241 to 242 |
| CCOc1cccc(C#N)c1 [Example 5] | 241-244° ° C. | 241 to 244 |
| O=C1NC(=O)C2(CCC(O)C2)c2ccncc21 (stereo not drawn) [Example 8] | 240-243° ° C. | 240 to 243 |
| c1cc2c3c(cccc3c1)-c1nc3ccccc3nc1-2 [Example 10] | 241° ° C. | 241 |
| O=[N+]([O-])c1cccc2nc[nH]c12 [Example 12] | 242° ° C. | 242 |
| NC(=O)CCCC[C@@H]1SC[C@@H]2NC(=O)N[C@@H]21 [Example 13] | 242-244° ° C. | 242 to 244 |
| c1cnc2c(ccc3nccnc32)n1 [Example 20] | 242° ° C. | 242 |
| CC(C)(C)C1=CC(=C2C=C(C(C)(C)C)C(=O)C(C(C)(C)C)=C2)C=C(C(C)(C)C)C1=O [Example 22] | 243-245° ° C. | 243 to 245 |
| Cc1nc2ccccc2c2ccc([N+](=O)[O-])cc12 [Example 23] | 243-245° ° C. | 243 to 245 |
| Nc1ccc2ccccc2c1-c1c(N)ccc2ccccc12 [Example 25] | 242.5-243° ° C. | 242.5 to 243 |
| CC1=C(/C=C/C(C)=C/C=C/C(C)=C/C=C/C=C(C)/C=C/C=C(C)/C=C/C2=C(C)C(=O)C(=O)C2(C)C)C(C)(C)C(=O)C1=O [Example 26] | 243° ° C. | 243 |
| Cc1cc(C)c(C=O)cc1C [Example 28] | 243° ° C. | 243 |
| O=c1ccc2c(O)cccc2o1 [Example 31] | 244-247° ° C. | 244 to 247 |
| Nc1ccc(C(=O)c2ccc(N)cc2)cc1 [Example 33] | 244-245° ° C. | 244 to 245 |
| COc1ccccc1[C@H](C)C(=O)N1C[C@@H]2[C@H](C1)C(c1ccccc1)(c1ccccc1)CC[C@@]2(O)c1ccccc1OC [Example 34] | 244° ° C. | 244 |
| Nc1ccn(C2C=CC(N)C(C(=O)O)O2)c(=O)n1 (stereo not drawn) [Example 35] | 244-245° ° C. | 244 to 245 |
| O=Cc1c2ccccc2c(C=O)c2ccccc12 [Example 37] | 244-245° ° C. | 244 to 245 |
| Nc1nc(N)nc(Cc2ccccc2)n1 [Example 39] | 245° ° C. | 245 |
| Cn1cnc2ncn(C)c2c1=O [Example 41] | 245-246° ° C. | 245 to 246 |
| O=c1[nH][nH]c2ccccc12 [Example 44] | 245-247° ° C. | 245 to 247 |
| CC1(C)Oc2ccc(C#N)cc2[C@H](n2ccccc2=O)[C@H]1O [Example 45] | 245-246° ° C. | 245 to 246 |
| Nc1ccc2c(c1)[nH]c1ccccc12 [Example 47] | 245-247° ° C. | 245 to 247 |
| Nc1nnc2ccccn12 [Example 48] | 245-247° ° C. | 245 to 247 |
| c1cc2n[nH]nc2cn1 [Example 50] | 246-247° ° C. | 246 to 247 |
| Cc1c(C)c(CO)c(C)c(C)c1CO [Example 51] | 246-248° ° C. | 246 to 248 |

| Structure (SMILES) | Melting Point [1] | Melting Point [°C] |
| --- | --- | --- |
| c1ccc2c(c1)-c1ccccc1C2C1c2ccccc2-c2ccccc21 [Example 56] | 246° ° C. | 246 |
| C#C/C=C/C1C(O)CCCC12CCCC(CCCC#C)N2 (stereo not drawn) [Example 60] | 247-250° ° C. | 247 to 250 |
| CCNC(=O)c1cc2c(cn1)[nH]c1ccccc12 [Example 61] | 247-249° ° C. | 247 to 249 |
| Nc1nc(N)nc(Cc2ccccc2)n1 [Example 67] | – | 248 |
| Oc1cc2c3ccccc3ccc2c2ccccc12 [Example 68] | 248-250° ° C. | 248 to 250 |
| c1ccc(-c2nc(-c3ccccc3)c(-c3ccccc3)nc2-c2ccccc2)cc1 [Example 69] | 248° ° C. | 248 |
| c1ccc2nc3nccnc3nc2c1 [Example 71] | 249° ° C. | 249 |
| NNc1ccc(C(N)=O)nn1 [Example 72] | 249-250° ° C. | 249 to 250 |
| O=[N+]([O-])c1ccc(NN=Cc2ccccc2Cl)cc1 [Example 73] | 249° ° C. | 249 |
| O=C(C=Cc1ccccc1)NCCCCNC(=O)C=Cc1ccccc1 [Example 74] | 249-253° ° C. | 249 to 253 |
| Nc1cccc2sc3ccccc3c(=O)c12 [Example 75] | 249-250° ° C. | 249 to 250 |
| c1nc2nc3nc[nH]cc3n2n1 [Example 77] | 250° ° C. | 250 |
| CN1Cc2cc(C3=NNC(=O)CC3)ccc2NC1=O [Example 79] | 250° ° C. | 250 |
| Cc1ccc2cc3cc(C)ccc3cc2c1 [Example 80] | – | 250 |
| CN(C)c1ccc(C(C)(C)C)cc1 [Example 82] | 250-253° ° C. | 250 to 253 |
| CC(=O)Nc1cc2ccccc2c2ccc3ccccc3c12 [Example 83] | 250-251° ° C. | 250 to 251 |
| Oc1cccc2nc3ccccc3cc12 [Example 84] | – | 230 |
| NC(=O)C1c2ccccc2-c2ccccc21 [Example 86] | 251° ° C. | 251 |
| Cc1cc2[nH]c3ccccc3c2cc1C [Example 87] | 251-253° ° C. | 251 to 253 |
| C(#Cc1c2ccccc2c(C#Cc2ccccc2)c2ccccc12)c1ccccc1 [Example 88] | 251-253° ° C. | 251 to 253 |
| O=c1ccc2ncc[nH]c-2c1 [Example 90] | 252-254° ° C. | 252 to 254 |
| O=C1CCc2c1[nH]c1ccccc21 [Example 95] | 252-252.5° ° C. | 252 to 252.5 |
| O=c1[nH]c(=S)oc2ccccc12 [Example 98] | 253° ° C. | 253 |
| c1ccc2c(c1)[nH]c1ccc3cnccc3c12 [Example 99] | 254-255° ° C. | 254 to 255 |
| Oc1c2ccc3ccccc3c2cc2ccc3ccccc3c12 [Example 101] | 254-256° ° C. | 254 to 256 |

| Structure (SMILES) | Melting Point [1] | Melting Point [°C] |
| --- | --- | --- |
| O=c1nc(Cc2ccccc2)[nH]c2ccccc12 [Example 102] | – | 254 to 256 |
| Oc1ccc2cc3ccccc3cc2c1 [Example 103] | 254° ° C. | 254 |
| Nc1nc2c([N+](=O)[O-])cccc2s1 [Example 105] | 254° ° C. | 254 |
| CC1(C)CNC(=O)NC1 [Example 107] | 255-257° ° C. | 255 to 257 |
| N#Cc1ccc2c(=O)c3ccccc3sc2c1 [Example 110] | 255-256° ° C. | 255 to 256 |
| Oc1ccc(-c2cnc(-c3cccnc3)o2)cc1 [Example 115] | 255-256° ° C. | 255 to 256 |
| CN1CC2CC(NC(=O)c3n[nH]c4ccccc34)CC(C1)N2C (stereo not drawn) [Example 118] | 256-257° ° C. | 256 to 257 |
| c1ccc(-c2ccnc(-c3cc(-c4ccccc4)cc(-c4cc(-c5ccccc5)ccn4)n3)c2)cc1 [Example 122] | 257-258° ° C. | 257 to 258 |
| c1ccc2cc3c(ccc4cc5ccccc5cc43)cc2c1 [Example 123] | – | 257 |
| NC1=NCCC(CC(N)C(=O)O)N1 (stereo not drawn) [Example 124] | 258-259° ° C. | 258 to 259 |
| CC(=O)Nc1cnn2c(C)nc3ccccc3c12 [Example 125] | 258-260° ° C. | 258 to 260 |
| O=[N+]([O-])c1nc2ccccc2[nH]1 [Example 127] | 258° ° C. | 258 |
| c1cnc2[nH]cnc2n1 [Example 128] | 258-259° ° C. | 258 to 259 |
| COc1cc(CCN(C)C)ccc1O [Example 129] | 258-260° ° C. | 258 to 260 |
| Oc1cc2ccccc2c2cc3ccc4ccccc4c3cc12 [Example 130] | 258-259° ° C. | 258 to 259 |
| c1ccc2c(c1)[nH]c1ccc3ccncc3c12 [Example 132] | 259-260° ° C. | 259 to 260 |
| CCN(CCCCN)c1ccc2c(=O)[nH][nH]c(=O)c2c1 [Example 136] | 259-260° ° C. | 259 to 260 |
| O=c1c(=C2Cc3cccc4cccc2c34)c2cccc3cccc1c32 [Example 137] | 259-260° ° C. | 259 to 260 |
| O=c1cc2oc3ccccc3oc-2cc1=O [Example 138] | 260-261° ° C. | 260 to 261 |
| O=c1ccc2c(cc3ccc4cccc5ccc2c3c45)c1=O [Example 139] | 260° ° C. | 260 |
| O=C1C=Cc2c(ccc3c2ccc2ccccc23)C1=O [Example 142] | 260-261° ° C. | 260 to 261 |
| O=C1C(=O)c2cc3ccccc3cc2-c2ccccc21 [Example 143] | 260-262° ° C. | 260 to 262 |
| Cn1ccc(N)nc1=O [Example 145] | 260-265° ° C. | 260 to 265 |
